In patent publication US6737383B1, “Herbicidal oxadiazolidines” (priority 1999, dated 2004):

Columns and labels:
soybean = assay: Test B pre/postemergence soybean; assay type: in vivo, Glycine max; settings: for Soybean plant response rating: scale of 0 to 10 where 0 is no effect and 10 is complete control
Procedure, shortened: (§1)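 Response is a visual 0-to-10 score relative to untreated plants, where 0 means no effect and 10 means complete control, taken twelve to sixteen days after application. Treatments went onto soil at planting and onto foliage of 1- to 4-leaf plants, using a surfactant-containing non-phytotoxic solvent.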

smallflower flatsedge = assay: Test B flood test smallflower flatsedge; assay type: in vivo, Cyperus difformis
Procedure, shortened: (§2)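 Read-out is a visual response score from 0 (no effect) to 10 (complete control), assigned by comparison with untreated controls. Treatment was applied at the 2-leaf stage, and plants stayed in the greenhouse for twelve to sixteen days before scoring.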

blackgrass = assay: Test B pre/postemergence blackgrass; assay type: in vivo, Alopecurus myosuroides
Procedure, shortened: as §1

bamyardgrass = assay: Test B flood test barnyardgrass; assay type: in vivo, Echinochloa crus-galli
Procedure, shortened: as §2

purple nutsedge = assay: Test B pre/postemergence purple nutsedge; assay type: in vivo, Cyperus rotundus; settings: for Nutsedge plant response rating: scale of 0 to 10 where 0 is no effect and 10 is complete control
Procedure, shortened: as §1

rape = assay: Test B pre/postemergence rape; assay type: in vivo, Brassica napus; settings: for Rape plant response rating: scale of 0 to 10 where 0 is no effect and 10 is complete control
Procedure, shortened: as §1

velvetleaf = assay: Test B pre/postemergence velvetleaf; assay type: in vivo, Abutilon theophrasti; settings: for Velvetleaf plant response rating: scale of 0 to 10 where 0 is no effect and 10 is complete control
Procedure, shortened: as §1

cocklebur = assay: Test B pre/postemergence cocklebur; assay type: in vivo, Xanthium strumarium; settings: for Cocklebur plant response rating: scale of 0 to 10 where 0 is no effect and 10 is complete control
Procedure, shortened: as §1

surinam grass = assay: Test B pre/postemergence surinam grass; assay type: in vivo, Brachiaria decumbens
Procedure, shortened: as §1

wheat = assay: Test B pre/postemergence wheat; assay type: in vivo, Triticum aestivum; settings: for Wheat plant response rating: scale of 0 to 10 where 0 is no effect and 10 is complete control
Procedure, shortened: as §1

corn = assay: Test B pre/postemergence corn; assay type: in vivo, Zea mays; settings: for Corn plant response rating: scale of 0 to 10 where 0 is no effect and 10 is complete control
Procedure, shortened: as §1

wild oat = assay: Test B pre/postemergence wild oat; assay type: in vivo, Avena fatua; settings: for Wild oats plant response rating: scale of 0 to 10 where 0 is no effect and 10 is complete control
Procedure, shortened: as §1

bedstraw = assay: Test B pre/postemergence bedstraw; assay type: in vivo, Galium aparine; settings: Preemergence; for Bedstraw plant response rating: scale of 0 to 10 where 0 is no effect and 10 is complete control
Procedure, shortened: as §1

crabgrass = assay: Test B pre/postemergence crabgrass; assay type: in vivo, Digitaria sanguinalis; settings: for Crabgrass plant response rating: scale of 0 to 10 where 0 is no effect and 10 is complete control
Procedure, shortened: as §1

pigweed = assay: Test B pre/postemergence pigweed; assay type: in vivo, Amaranthus retroflexus; settings: for Redroot pigweed plant response rating: scale of 0 to 10 where 0 is no effect and 10 is complete control
Procedure, shortened: as §1

sugar beet = assay: Test B pre/postemergence sugar beet; assay type: in vivo, Beta vulgaris; settings: for Sugarbeets plant response rating: scale of 0 to 10 where 0 is no effect and 10 is complete control
Procedure, shortened: as §1

[1] = Postemergence, Rate 125 g/ha, scale 0 to 10, 0 is no effect, 10 is complete control
[2] = Preemergence, Rate 62 g/ha, scale 0 to 10 (0 no effect, 10 complete control)
[3] = Rate 500 g/ha, Postemergence, scale 0 to 10, 0 no effect, 10 complete control
[4] = Postemergence (flood test), Rate 125 g/ha, scale 0 to 10, 0 is no effect, 10 is complete control
[5] = Rate 62 g/ha, Postemergence (flood test species), scale of 0 to 10 where 0 is no effect and 10 is complete control
[6] = Rate 62 g/ha, flood test species, Pre-emergence, visual evaluation after twelve to sixteen days
[7] = Rate 125 g/ha, Pre-emergence, flood test species, scale 0 to 10 where 0 is no effect and 10 is complete control
[8] = Rate 250 g/ha, Pre-emergence, flood-test species, scale 0 to 10, 0 is no effect, 10 is complete control
[9] = Rate 500 g/ha, listed under Postemergence (flood test species), scale 0 to 10, 0 no effect, 10 complete control
[10] = Rate 500 g/ha, Pre-emergence, flood test species, scale 0 to 10 (0 no effect, 10 complete control)
[11] = Preemergence, Rate 250 g/ha, scale of 0 to 10 where 0 is no effect and 10 is complete control
[12] = Preemergence, Rate 500 g/ha, scale of 0 to 10 where 0 is no effect and 10 is complete control
[13] = Rate 62 g/ha, Postemergence, scale of 0 to 10 where 0 is no effect and 10 is complete control
[14] = Rate 250 g/ha, Postemergence, scale of 0 to 10 where 0 is no effect and 10 is complete control

## CC(C)N(C(=O)n1oc(=O)n(C2CCC2)c1=O)c1ccc(F)cc1 [Compound 350]
soybean; [1]
  Plant response rating, Soybean: 1
soybean; [2]
  Plant response rating, Soybean: 0
soybean; Preemergence, Rate 125 g/ha
  Soybean plant response rating (0 to 10 scale): 0
soybean; Preemergence, Rate 250 g/ha
  Soybean plant response rating: 0
soybean; Preemergence, Rate 500 g/ha
  Soybean plant response rating: 2
soybean; Rate 62 g/ha, Postemergence
  Soybean plant response rating: 1
soybean; [3]
  Plant response rating, Soybean: 3
Smallflower flatsedge; [4]
  Plant response rating, S. Flatsedge: 2
Smallflower flatsedge; [5]
  S. Flatsedge plant response rating: 0
Smallflower flatsedge; [6]
  Plant response rating, S. Flatsedge (0 to 10 scale, 0 is no effect, 10 is complete control): 0
Smallflower flatsedge; [7]
  S. Flatsedge plant response rating: 0
Smallflower flatsedge; [8]
  S. Flatsedge plant response rating: 0
Smallflower flatsedge; [9]
  Plant response rating, S. Flatsedge: 8
Smallflower flatsedge; [10]
  S. Flatsedge plant response rating: 0
blackgrass; [1]
  Plant response rating, Blackgrass: 4
blackgrass; [2]
  Plant response rating, Blackgrass: 4
blackgrass; Preemergence, Rate 125 g/ha
  Blackgrass plant response rating (0 to 10 scale): 5
blackgrass; [11]
  Blackgrass plant response rating: 8
blackgrass; [12]
  Blackgrass plant response rating: 8
blackgrass; [13]
  Blackgrass plant response rating: 4
blackgrass; [14]
  Plant response rating, Blackgrass: 7
blackgrass; [3]
  Plant response rating, Blackgrass: 7
bamyardgrass; [4]
  Plant response rating, Barnyardgrass: 0
bamyardgrass; [5]
  Barnyardgrass plant response rating: 0
bamyardgrass; [6]
  Plant response rating, Barnyardgrass (0 to 10 scale, 0 is no effect, 10 is complete control): 0
bamyardgrass; [7]
  Barnyardgrass plant response rating: 0
bamyardgrass; Rate 250 g/ha, Postemergence (flood test species), scale of 0 to 10 where 0 is no effect and 10 is complete control
  Plant response rating, Barnyardgrass: 3
bamyardgrass; [8]
  Barnyardgrass plant response rating: 0
bamyardgrass; [9]
  Plant response rating, Barnyardgrass: 5
bamyardgrass; [10]
  Barnyardgrass plant response rating: 0
Purple nutsedge; [1]
  Plant response rating, Nutsedge: 0
Purple nutsedge; Preemergence, Rate 125 g/ha
  Nutsedge plant response rating (0 to 10 scale): 0
Purple nutsedge; Preemergence, Rate 250 g/ha
  Nutsedge plant response rating: 0
Purple nutsedge; Preemergence, Rate 500 g/ha
  Nutsedge plant response rating: 10
Purple nutsedge; Rate 62 g/ha, Postemergence
  Nutsedge plant response rating: 0
Purple nutsedge; [3]
  Plant response rating, Nutsedge: 0
rape; [1]
  Plant response rating, Rape: 0
rape; [2]
  Plant response rating, Rape: 0
rape; Preemergence, Rate 125 g/ha
  Rape plant response rating (0 to 10 scale): 0
rape; Preemergence, Rate 250 g/ha
  Rape plant response rating: 7
rape; Preemergence, Rate 500 g/ha
  Rape plant response rating: 10
rape; Rate 62 g/ha, Postemergence
  Rape plant response rating: 0
rape; [3]
  Plant response rating, Rape: 2
velvetleaf; [1]
  Plant response rating, Velvetleaf: 0
velvetleaf; [2]
  Plant response rating, Velvetleaf: 2
velvetleaf; Preemergence, Rate 125 g/ha
  Velvetleaf plant response rating (0 to 10 scale): 2
velvetleaf; Preemergence, Rate 250 g/ha
  Velvetleaf plant response rating: 4
velvetleaf; Preemergence, Rate 500 g/ha
  Velvetleaf plant response rating: 6
velvetleaf; Rate 62 g/ha, Postemergence
  Velvetleaf plant response rating: 0
velvetleaf; [3]
  Plant response rating, Velvetleaf: 6
cocklebur; [1]
  Plant response rating, Cocklebur: 0
cocklebur; [2]
  Plant response rating, Cocklebur: 0
cocklebur; Preemergence, Rate 125 g/ha
  Cocklebur plant response rating (0 to 10 scale): 0
cocklebur; Preemergence, Rate 250 g/ha
  Cocklebur plant response rating: 0
cocklebur; Preemergence, Rate 500 g/ha
  Cocklebur plant response rating: 0
cocklebur; Rate 62 g/ha, Postemergence
  Cocklebur plant response rating: 0
cocklebur; [3]
  Plant response rating, Cocklebur: 3
Surinam grass; [1]
  Plant response rating, B. signalgrass: 0
Surinam grass; [2]
  Plant response rating, B. signalgrass: 0
Surinam grass; Preemergence, Rate 125 g/ha
  B. signalgrass plant response rating (0 to 10 scale, 0 is no effect, 10 is complete control): 0
Surinam grass; [11]
  B. signalgrass plant response rating: 2
Surinam grass; [12]
  B. signalgrass plant response rating: 4
Surinam grass; [13]
  B. signalgrass plant response rating: 0
Surinam grass; [14]
  Plant response rating, B. signalgrass: 0
Surinam grass; [3]
  Plant response rating, B. signalgrass: 4
wheat; [1]
  Plant response rating, Wheat: 0
wheat; [2]
  Plant response rating, Wheat: 0
wheat; Preemergence, Rate 125 g/ha
  Wheat plant response rating (0 to 10 scale): 0
wheat; Preemergence, Rate 250 g/ha
  Wheat plant response rating: 2
wheat; Preemergence, Rate 500 g/ha
  Wheat plant response rating: 3
wheat; Rate 62 g/ha, Postemergence
  Wheat plant response rating: 0
wheat; [3]
  Plant response rating, Wheat: 2
corn; [1]
  Plant response rating, Corn: 0
corn; [2]
  Plant response rating, Corn: 0
corn; Preemergence, Rate 125 g/ha
  Corn plant response rating (0 to 10 scale): 0
corn; Preemergence, Rate 250 g/ha
  Corn plant response rating: 0
corn; Preemergence, Rate 500 g/ha
  Corn plant response rating: 7
corn; Rate 62 g/ha, Postemergence
  Corn plant response rating: 0
corn; [3]
  Plant response rating, Corn: 0
Wild oat; [1]
  Plant response rating, Wild oats: 0
Wild oat; [2]
  Plant response rating, Wild oats: 0
Wild oat; Preemergence, Rate 125 g/ha
  Wild oats plant response rating (0 to 10 scale): 3
Wild oat; Preemergence, Rate 250 g/ha
  Wild oats plant response rating: 5
Wild oat; Preemergence, Rate 500 g/ha
  Wild oats plant response rating: 7
Wild oat; Rate 62 g/ha, Postemergence
  Wild oats plant response rating: 0
Wild oat; [3]
  Plant response rating, Wild oats: 5
bedstraw; Rate 62 g/ha, scale 0 to 10 (0 no effect, 10 complete control)
  Plant response rating, Bedstraw: 10
bedstraw; Rate 125 g/ha
  Bedstraw plant response rating (0 to 10 scale): 10
bedstraw; Rate 250 g/ha
  Bedstraw plant response rating: 10
bedstraw; Rate 500 g/ha
  Bedstraw plant response rating: 10
crabgrass; [1]
  Plant response rating, Crabgrass: 1
crabgrass; [2]
  Plant response rating, Crabgrass: 8
crabgrass; Preemergence, Rate 125 g/ha
  Crabgrass plant response rating (0 to 10 scale): 8
crabgrass; Preemergence, Rate 250 g/ha
  Crabgrass plant response rating: 10
crabgrass; Preemergence, Rate 500 g/ha
  Crabgrass plant response rating: 10
crabgrass; Rate 62 g/ha, Postemergence
  Crabgrass plant response rating: 1
crabgrass; [3]
  Plant response rating, Crabgrass: 7
pigweed; [1]
  Plant response rating, Redroot pigweed: 0
pigweed; [2]
  Plant response rating, Redroot pigweed: 4
pigweed; Preemergence, Rate 125 g/ha
  Redroot pigweed plant response rating (0 to 10 scale): 10
pigweed; Preemergence, Rate 250 g/ha
  Redroot pigweed plant response rating: 10
pigweed; Preemergence, Rate 500 g/ha
  Redroot pigweed plant response rating: 10
pigweed; Rate 62 g/ha, Postemergence
  Redroot pigweed plant response rating: 0
pigweed; [3]
  Plant response rating, Redroot pigweed: 3
Sugar beet; [1]
  Plant response rating, Sugarbeets: 0
Sugar beet; [2]
  Plant response rating, Sugarbeets: 2
Sugar beet; Preemergence, Rate 125 g/ha
  Sugarbeets plant response rating (0 to 10 scale): 2
Sugar beet; Preemergence, Rate 250 g/ha
  Sugarbeets plant response rating: 4
Sugar beet; Preemergence, Rate 500 g/ha
  Sugarbeets plant response rating: 9
Sugar beet; Rate 62 g/ha, Postemergence
  Sugarbeets plant response rating: 0
Sugar beet; [3]
  Plant response rating, Sugarbeets: 0
